Reference: publication PMC2396520, “Antibody Complementarity-Determining Regions (CDRs) Can Display Differential Antimicrobial, Antiviral and Antitumor Activities” (PLoS ONE, 2008)
Where a SMILES comes first, the peptide text is derived from it.

What was measured:
Candida albicans UP10 = assay type: cell-based; details: for Anti-Candida activity (%) at 100 µg/mL: C7/pc42 H2 alanine-substituted derivatives, 37°C, 6 h, CFU assay, triplicate; for EC50: UP10, 6 h; for EC50asd/EC50H2: anti-Candida EC50 of the derivative relative to C7/pc42 H2
Protocol: The alanine substituted derivatives (asd), defined according to the position held by the alanine-substituted aminoacid, were tested in the same biological assays to critically establish the functional relevance of each residue [5]. In vitro microbicidal activity of CDR peptides and selected asd against C. albicans UP 10 (clinical isolate from the fungi collection of the University of Parma) and C. albicans NCPF 3153 (National Collection of Pathogenic Fungi, Bristol, UK) were used for the in vitro experiments.
The microbicidal activity of synthetic CDRs against C. albicans strains was preliminarily evaluated by testing 100 µg/mL of each synthetic peptide by colony forming unit (CFU) assays as previously described [5]. Briefly, 10 µL of a distilled water suspension containing ∼5×10^4/mL germinating yeast cells were added to 90 µL of distilled water containing the synthetic peptide to be tested. Yeast suspensions were incubated at 37°C for 6 h. After incubation, the cell suspensions were plated on Sabouraud dextrose agar, incubated at 30°C and observed for CFU determination after 48–72 hours. Each assay was carried out in triplicate. […] EC50 was calculated by nonlinear regression analysis using Graph Pad Prism 4.01 software, San Diego, CA, USA.

[1] = test system: B16F10-Nex2 murine melanoma cells; assay type: cell-based; details: for EC50: 12 h
Protocol: Each peptide was tested in triplicate. After 12 h, the cytotoxic activities of the peptides were determined by measuring cell viability by Trypan Blue exclusion.

Molecule	Anti-Candida activity (%) at 100 µg/mL (Candida albicans UP10) [%]	EC50 (Candida albicans UP10) [µM]	EC50asd/EC50H2 (Candida albicans UP10)	EC50 [1] [µM]	apoptotic activity in melanoma cells ([1]; data not shown)
CC[C@H](C)[C@H](NC(=O)[C@@H](N)Cc1ccc(O)cc1)C(=O)N[C@@H](CO)C(=O)N[C@@H](C)C(=O)N[C@@H](Cc1ccc(O)cc1)C(=O)N[C@@H](CC(N)=O)C(=O)NCC(=O)N[C@@H](C)C(=O)N[C@H](C(=O)N[C@@H](CO)C(=O)N[C@@H](Cc1ccc(O)cc1)C(=O)N[C@@H](CC(N)=O)C(=O)N[C@@H](CCC(N)=O)C(=O)N[C@@H](CCCCN)C(=O)N[C@@H](Cc1ccccc1)C(=O)N[C@@H](CCCCN)C(=O)O)[C@@H](C)O [C4A] (H-YISAYNGATSYNQKFK-OH; N-terminus and C-terminus assumed)	94.51	8.23	1.96	67.5	
CC(C)C[C@H](NC(=O)[C@H](CC(C)C)NC(=O)[C@H](CO)NC(=O)[C@H](CCC(N)=O)NC(=O)[C@H](CO)NC(=O)[C@H](CO)NC(=O)[C@@H](N)CCCCN)C(=O)N[C@@H](CC(N)=O)C(=O)N[C@@H](CO)C(=O)NCC(=O)N[C@@H](CC(N)=O)C(=O)N[C@@H](CCC(N)=O)C(=O)N[C@@H](CCCCN)C(=O)N[C@@H](CC(N)=O)C(=O)N[C@@H](Cc1ccc(O)cc1)C(=O)N[C@@H](CC(C)C)C(=O)N[C@H](C(=O)O)[C@@H](C)O [C7 L1] (H-KSSQSLLNSGNQKNYLT-OH)		15.2			
N=C(N)NCCC[C@H](NC(=O)[C@H](CO)NC(=O)[C@H](CCCNC(=N)N)NC(=O)[C@@H]1CCCN1C(=O)[C@H](Cc1ccc(O)cc1)NC(=O)[C@H](CO)NC(=O)[C@H](Cc1ccc(O)cc1)NC(=O)[C@H](CC(=O)O)NC(=O)[C@@H](N)CC(N)=O)C(=O)O [C7 L3] (H-NDYSYPRSR-OH)		20.2			
CC[C@H](C)[C@H](NC(=O)[C@@H](N)Cc1ccc(O)cc1)C(=O)N[C@@H](CO)C(=O)N[C@@H](CS)C(=O)N[C@@H](Cc1ccc(O)cc1)C(=O)N[C@@H](CC(N)=O)C(=O)NCC(=O)N[C@@H](C)C(=O)N[C@H](C(=O)N[C@@H](CO)C(=O)N[C@@H](Cc1ccc(O)cc1)C(=O)N[C@@H](CC(N)=O)C(=O)N[C@@H](CCC(N)=O)C(=O)N[C@@H](CCCCN)C(=O)N[C@@H](C)C(=O)N[C@@H](CCCCN)C(=O)O)[C@@H](C)O [F15A] (H-YISCYNGATSYNQKAK-OH; N-terminus and C-terminus assumed)	100.00	0.904	0.22	1000	
CC[C@H](C)[C@H](NC(=O)[C@@H](N)Cc1ccc(O)cc1)C(=O)N[C@@H](CO)C(=O)N[C@@H](CS)C(=O)N[C@@H](Cc1ccc(O)cc1)C(=O)N[C@@H](CC(N)=O)C(=O)N[C@@H](C)C(=O)N[C@@H](C)C(=O)N[C@H](C(=O)N[C@@H](CO)C(=O)N[C@@H](Cc1ccc(O)cc1)C(=O)N[C@@H](CC(N)=O)C(=O)N[C@@H](CCC(N)=O)C(=O)N[C@@H](CCCCN)C(=O)N[C@@H](Cc1ccccc1)C(=O)N[C@@H](CCCCN)C(=O)O)[C@@H](C)O [G7A] (H-YISCYNAATSYNQKFK-OH; N-terminus and C-terminus assumed)	100.00	7.31	1.74	63.2	
N=C(N)NCCC[C@H](NC(=O)[C@H](CCC(N)=O)NC(=O)[C@@H](N)CCC(N)=O)C(=O)N[C@@H](CO)C(=O)N[C@@H](CC(N)=O)C(=O)N[C@@H](Cc1c[nH]c2ccccc12)C(=O)N1CCC[C@H]1C(=O)N[C@@H](CCCNC(=N)N)C(=O)N[C@@H](CO)C(=O)O [HuA L3] (H-QQRSNWPRS-OH)		5.11			
C[C@H](NC(=O)CNC(=O)[C@H](CC(N)=O)NC(=O)[C@H](Cc1ccc(O)cc1)NC(=O)[C@H](CS)NC(=O)[C@H](CO)NC(=O)[C@H](C)NC(=O)[C@@H](N)Cc1ccc(O)cc1)C(=O)N[C@H](C(=O)N[C@@H](CO)C(=O)N[C@@H](Cc1ccc(O)cc1)C(=O)N[C@@H](CC(N)=O)C(=O)N[C@@H](CCC(N)=O)C(=O)N[C@@H](CCCCN)C(=O)N[C@@H](Cc1ccccc1)C(=O)N[C@@H](CCCCN)C(=O)O)[C@@H](C)O [I2A] (H-YASCYNGATSYNQKFK-OH; N-terminus and C-terminus assumed)	99.77	6.25	1.49	73.5	
CC[C@H](C)[C@H](NC(=O)[C@@H](N)Cc1ccc(O)cc1)C(=O)N[C@@H](CO)C(=O)N[C@@H](CS)C(=O)N[C@@H](Cc1ccc(O)cc1)C(=O)N[C@@H](CC(N)=O)C(=O)NCC(=O)N[C@@H](C)C(=O)N[C@H](C(=O)N[C@@H](CO)C(=O)N[C@@H](Cc1ccc(O)cc1)C(=O)N[C@@H](CC(N)=O)C(=O)N[C@@H](CCC(N)=O)C(=O)N[C@@H](C)C(=O)N[C@@H](Cc1ccccc1)C(=O)N[C@@H](CCCCN)C(=O)O)[C@@H](C)O [K14A] (H-YISCYNGATSYNQAFK-OH; N-terminus and C-terminus assumed)	91.72	18.5	4.41	384	
CC[C@H](C)[C@H](NC(=O)[C@@H](N)Cc1ccc(O)cc1)C(=O)N[C@@H](CO)C(=O)N[C@@H](CS)C(=O)N[C@@H](Cc1ccc(O)cc1)C(=O)N[C@@H](CC(N)=O)C(=O)NCC(=O)N[C@@H](C)C(=O)N[C@H](C(=O)N[C@@H](CO)C(=O)N[C@@H](Cc1ccc(O)cc1)C(=O)N[C@@H](CC(N)=O)C(=O)N[C@@H](CCC(N)=O)C(=O)N[C@@H](CCCCN)C(=O)N[C@@H](Cc1ccccc1)C(=O)N[C@@H](C)C(=O)O)[C@@H](C)O [K16A] (H-YISCYNGATSYNQKFA-OH; N-terminus and C-terminus assumed)	0	161	38.35	87	
CC[C@H](C)[C@H](NC(=O)[C@@H](N)Cc1ccc(O)cc1)C(=O)N[C@@H](CO)C(=O)N[C@@H](CS)C(=O)N[C@@H](Cc1ccc(O)cc1)C(=O)N[C@@H](C)C(=O)NCC(=O)N[C@@H](C)C(=O)N[C@H](C(=O)N[C@@H](CO)C(=O)N[C@@H](Cc1ccc(O)cc1)C(=O)N[C@@H](CC(N)=O)C(=O)N[C@@H](CCC(N)=O)C(=O)N[C@@H](CCCCN)C(=O)N[C@@H](Cc1ccccc1)C(=O)N[C@@H](CCCCN)C(=O)O)[C@@H](C)O [N6A] (H-YISCYAGATSYNQKFK-OH; N-terminus and C-terminus assumed)	100.00	1.54	0.37	76.9	
CC[C@H](C)[C@H](NC(=O)[C@@H](N)Cc1ccc(O)cc1)C(=O)N[C@@H](CO)C(=O)N[C@@H](CS)C(=O)N[C@@H](Cc1ccc(O)cc1)C(=O)N[C@@H](CC(N)=O)C(=O)NCC(=O)N[C@@H](C)C(=O)N[C@H](C(=O)N[C@@H](CO)C(=O)N[C@@H](Cc1ccc(O)cc1)C(=O)N[C@@H](C)C(=O)N[C@@H](CCC(N)=O)C(=O)N[C@@H](CCCCN)C(=O)N[C@@H](Cc1ccccc1)C(=O)N[C@@H](CCCCN)C(=O)O)[C@@H](C)O [N12A] (H-YISCYNGATSYAQKFK-OH; N-terminus and C-terminus assumed)	100.00	6.48	1.55	125	
CC[C@H](C)[C@H](NC(=O)[C@@H](N)Cc1ccc(O)cc1)C(=O)N[C@@H](CO)C(=O)N[C@@H](CS)C(=O)N[C@@H](Cc1ccc(O)cc1)C(=O)N[C@@H](CC(N)=O)C(=O)NCC(=O)N[C@@H](C)C(=O)N[C@H](C(=O)N[C@@H](CO)C(=O)N[C@@H](Cc1ccc(O)cc1)C(=O)N[C@@H](CC(N)=O)C(=O)N[C@@H](C)C(=O)N[C@@H](CCCCN)C(=O)N[C@@H](Cc1ccccc1)C(=O)N[C@@H](CCCCN)C(=O)O)[C@@H](C)O [Q13A] (H-YISCYNGATSYNAKFK-OH; N-terminus and C-terminus assumed)	100.00	3.91	0.93	128	
CC[C@H](C)[C@H](NC(=O)[C@@H](N)Cc1ccc(O)cc1)C(=O)N[C@@H](C)C(=O)N[C@@H](CS)C(=O)N[C@@H](Cc1ccc(O)cc1)C(=O)N[C@@H](CC(N)=O)C(=O)NCC(=O)N[C@@H](C)C(=O)N[C@H](C(=O)N[C@@H](CO)C(=O)N[C@@H](Cc1ccc(O)cc1)C(=O)N[C@@H](CC(N)=O)C(=O)N[C@@H](CCC(N)=O)C(=O)N[C@@H](CCCCN)C(=O)N[C@@H](Cc1ccccc1)C(=O)N[C@@H](CCCCN)C(=O)O)[C@@H](C)O [S3A] (H-YIACYNGATSYNQKFK-OH; N-terminus and C-terminus assumed)	100.00	3.12	0.74	64.9	
CC[C@H](C)[C@H](NC(=O)[C@@H](N)Cc1ccc(O)cc1)C(=O)N[C@@H](CO)C(=O)N[C@@H](CS)C(=O)N[C@@H](Cc1ccc(O)cc1)C(=O)N[C@@H](CC(N)=O)C(=O)NCC(=O)N[C@@H](C)C(=O)N[C@H](C(=O)N[C@@H](C)C(=O)N[C@@H](Cc1ccc(O)cc1)C(=O)N[C@@H](CC(N)=O)C(=O)N[C@@H](CCC(N)=O)C(=O)N[C@@H](CCCCN)C(=O)N[C@@H](Cc1ccccc1)C(=O)N[C@@H](CCCCN)C(=O)O)[C@@H](C)O [S10A] (H-YISCYNGATAYNQKFK-OH; N-terminus and C-terminus assumed)	100.00	13.2	3.16	119	
CSCC[C@H](NC(=O)[C@H](Cc1ccc(O)cc1)NC(=O)[C@H](CO)NC(=O)[C@H](Cc1ccc(O)cc1)NC(=O)CNC(=O)[C@H](CO)NC(=O)[C@@H](NC(=O)[C@H](CO)NC(=O)[C@@H](NC(=O)[C@H](CO)NC(=O)[C@H](CCCCN)NC(=O)[C@H](CO)NC(=O)[C@H](C)NC(=O)[C@H](CCCNC(=N)N)NC(=O)[C@@H](N)Cc1ccc(O)cc1)C(C)C)[C@@H](C)O)C(=O)N[C@@H](Cc1c[nH]cn1)C(=O)O [pc42 L1] (H-YRASKSVSTSGYSYMH-OH)		0.78			
CC(C)C[C@H](NC(=O)[C@H](CC(N)=O)NC(=O)[C@H](CO)NC(=O)[C@@H](NC(=O)[C@@H](N)CC(C)C)C(C)C)C(=O)N[C@@H](CCC(=O)O)C(=O)N[C@@H](CO)C(=O)O [pc42 L2] (H-LVSNLES-OH)		12			
SYNQKFK [C-terminal peptide of C7/pc42 H2]					not apoptotic by itself
